From patent US20040057926A1, “Modulation of the immune response through the manipulation of arginine levels” (LSU Medical Center, priority 2002, published 2004)

Legend:
ASE I = assay: Western blot for ASE I in PM cytoplasmic extracts; assay type: cell-based, mice
Description: Cytoplasmic extracts from PM, Jurkat cells or T lymphocytes were prepared as previously reported. Taheri, F., J. B. Ochoa, Z. Faghiri, K. Culotta, H. J. Park, M. S. Lan, A. H. Zea, and A. C. Ochoa. 2001. L-Arginine regulates the expression of the T-cell receptor zeta chain (CD3zeta) in Jurkat cells. Clin Cancer Res 7:958s-965s. Briefly, cells were resuspended in lysis buffer (50 mM HEPES, 150 mM NaCl, 5 mM EDTA, 1 mM NaOV4 and 0.5% Triton) containing 50 μg/ml of aprotinin, 50 μg/ml of leupeptin, 100 μg/ml of trypsin-chymotrypsin inhibitor and 2 mM PMSF. Lysates were centrifuged at 3000×g for 10 min at 4° C. Cytoplasmic extracts from Jurkat or T-cells were immunoblotted for CD3ζ and CD3ε. The expression ASE I, ASE II and iNOS was detected by immunoblot using PM extracts. GAPDH was used as housekeeping protein. Cytoplasmic extracts were electrophoresed in 12 or 8% Tris-Glycine gels (Novex, San Diego, Calif.), transferred to PVDF membranes and immunoblotted with the appropriate antibodies. The reactions were detected using the ECL kit (Amersham-Pharmacia).

T lymphocytes = assay: Co-culture in transwells of stimulated PM and stimulated normal T lymphocytes, CD3ζ expression; assay type: cell-based, human
Description: T-cells were isolated from mononuclear cells of healthy donors by T-cell enrichment columns (R&D Systems, Minneapolis, Minn.) according to manufacturer specifications. T-cell purity (CD3+) ranged between 89-95%. The cycle of internalization and re-expression of the TCR-CD3 complex was induced by T-cell stimulation with 1 μg/ml of anti-CD3, 100 ng/ml of anti-CD28 (Becton Dickinson) and 10 μg/ml of goat anti-mouse IgG (KPL, Gaithersburg, Md.). Cells were stimulated in the absence of L-Arg and added to the co-cultures 24 h after stimulation.
(§1) PM were cultured in 6 well plates in RPMI containing 150 μM L-Arg and stimulated with murine rIL-4 (50 U/ml) and murine rIL-13 (50 ng/ml), or murine rIFN-γ (100 U/ml) for 24 hours. Then 1×10^6 normal T-cells stimulated with anti-CD3 plus anti-CD28 or 1×10^6 Jurkat cells, were cultured in the top chamber of a transwell system having 0.4 μm pores (Falcon, Franklin lakes, N.J.). CD3ζ expression was measured in Jurkat cells or T lymphocytes at different time points. PM were detached using trypsin/EDTA and the expression of protein and RNA for CAT-2B, ASE I, ASE II and iNOS was tested by western blot and northern blot respectively. Cytoplasmic extracts from PM were used to test ASE activity. Supernatants from stimulated PM were used to measure NO production using the Griess reagent method (Molecular Probes, Eugene, Oreg.). In addition, the extra-cellular concentration of L-Arg was tested in supernatants by HPLC (Dr. Gu Yao Wu laboratory, University of Texas) as described previously. O'Quinn, P. R., D. A. Knabe, and G. Wu. 2002. Arginine catabolism in lactating porcine mammary tissue. J Anim Sci. 80:467-474.
Flow cytometry analysis was performed as previously described. Taheri, F., J. B. Ochoa, Z. Faghiri, K. Culotta, H. J. Park, M. S. Lan, A. H. Zea, and A. C. Ochoa. 2001. […] Fluorescence acquisition and analysis were done using a Coulter-EPICS XL flow cytometer (Beckman-Coulter) with a 488 nm argon laser. The data were expressed as mean channel fluorescence intensity (MFI).

ASE = ASE activity assay (L-ornithine production) in PM lysates; assay type: biochemical, mice; conditions: NOHA 100 μM, Nor-NOHA 50 μM
Description: Cell lysates from PM stimulated with IL-4+IL-13 or IFN-γ were tested for ASE activity by measuring the production of L-ornithine. In brief, cell lysates from PM stimulated with IL-4+IL-13 or IFN-γ in the presence or absence of NOHA or Nor-NOHA were added to 50 μl of Tris-HCl (50 mM; pH 7.5) containing 10 mM MnCl2. This mixture was heated at 55-60° C. for 10 min to activate ASE. The hydrolysis reaction from L-Arg to L-ornithine was identified by a colorimetric assay after the addition of ninhydrin solution and incubation at 37° C. for 1 h.

Jurkat cells = assay: Co-culture in transwells of stimulated PM and Jurkat cells, CD3ζ expression; assay type: cell-based
Description: as §1
Flow cytometry analysis was performed as previously described. Taheri, F., J. B. Ochoa, Z. Faghiri, K. Culotta, H. J. Park, M. S. Lan, A. H. Zea, and A. C. Ochoa. 2001. L-Arginine regulates the expression of the T-cell receptor zeta chain (CD3zeta) in Jurkat cells. Clin Cancer Res 7:958s-965s. Briefly, 5×10^5 Jurkat cells or T lymphocytes were washed once with Dulbecco phosphate-buffered saline 1× (D-PBS) and resuspended in 200 μL of D-PBS containing 1 μg of anti-CD3ε or isotype control. Cells were incubated for 15 min at 4° C., washed with D-PBS and resuspended in 200 μl D-PBS containing 500 μg/ml of digitonin plus 1 μg of anti-CD3ζ or 1 μg of isotypic control. Cells were incubated for 8 minutes after which they were washed and resuspended in 400 μl of D-PBS. Fluorescence acquisition and analysis were done using a Coulter-EPICS XL flow cytometer (Beckman-Coulter) with a 488 nm argon laser. The data were expressed as mean channel fluorescence intensity (MFI).

[1] = system: peritoneal macrophages (PM); assay: Extra-cellular L-Arg concentration in supernatants of peritoneal macrophages (HPLC); assay type: cell-based, mice; conditions: for extra-cellular L-Arg levels (mean of three experiments): L-Arg 2 mM, NOHA 100 μM, Nor-NOHA 50 μM
Description: Jurkat T-cells, a CD4^+ cell line (Clone E6-1) (ATCC, Manassas, Va.) and normal stimulated T-cells were used to test the effect of ASE I, ASE II and iNOS produced by PM on CD3ζ expression. Six-week old female C57BL/6 mice were used to isolate peritoneal macrophages (PM). Briefly, 3 ml of thioglycolate-brewer (Becton Dickinson, San Jose, Calif.) were injected into the peritoneal cavity of mice for 3 days. Mice were then sacrificed and PM isolated by washing the peritoneum with HBSS. After 2 days of culture in RPMI with 4% fetal bovine serum, unattached cells were washed off and attached cells were used in co-cultures with Jurkat or normal T-cells.
as §1

3LL lung carcinoma = assay: Anti-tumor effect on 3LL lung carcinoma in C57Bl/6 mice; assay type: in vivo
Description: The anti-tumor effect of arginase inhibitor Nor-NOHA was also measured on these tumor cells. C57Bl/6 mice were injected with one million 3LL lung carcinoma cells on the flank. […] Control mice received normal saline solution. Tumors were measured and the tumor volume was calculated in cubic […]. […] Materials and methods for this example were similar to those described in the above examples.

CAT-2B = CAT-2B mRNA expression in PM (northern blot); assay type: cell-based, mice
Text: Anti-CD3ε-FITC, anti-CD3ζ-PE (Beckman-Coulter, Miami, Fla.) were used for flow cytometry. Mouse IgG1-FITC and mouse IgG1-PE (Beckman-Coulter) were used as isotype controls. Monoclonal antibodies against CD3ζ (Santa Cruz Biotechnologies, Santa Cruz, Calif.), CD3ε (DAKO, Carpinteria, Calif.), iNOS (Santa Cruz Biotechnologies), ASE I (Transduction-Becton Dickinson) and ASE II (a kind gift of Dr. Sidney Morris Jr) were used for western blots. To test the expression of CAT transporters mRNA, specific amplification products from RT-PCR of CAT-1, CAT-2A, CAT-2B and CAT-3 were purified from agarose gels and used as probes to detect CAT expression by northern blot. Murine full-length cDNA for glyceraldehyde-3 phosphate dehydrogenase (GAPDH) (1.6 Kb) (Clontech, Palo Alto, Calif.) was used as housekeeping control.
Two million PM stimulated with IL-4+IL-13 or IFN-γ were used for RNA extraction using lysis with TRIzol (Invitrogen-Gibco) following the manufacturer's specifications. Four micrograms of total RNA from each sample were electrophoresed under denaturing conditions, blotted onto nytran membranes (Schleicher & Schuell Inc, Keene, N.H.) and cross-linked by UV irradiation. Membranes were pre-hybridized at 42° C. in ULTRAhyb buffer (Ambion, Austin, Tex.) and hybridized overnight with 1×10^6 cpm/mL of ^32P-labeled probe. […]

| Molecule | ASE I up regulation after IL-4+IL-13 stimulation (ASE I; NOHA 100 μM, Nor-NOHA 50 μM) | CD3ζ in normal stimulated T lymphocytes co-cultured with IL-4+IL-13 activated PM (T lymphocytes) | intracellular ASE activity (ASE) | CD3ζ in Jurkat cells co-cultured with PM stimulated with IL-4+IL-13 (Jurkat cells; NOHA 100 μM, Nor-NOHA 50 μM, L-Arg 2 mM, L-NIL 5 μg/ml, catalase 200 U/ml, L-NMMA, L-NNA, L-NAME 1 mM) | extra-cellular L-Arg levels (mean of three experiments) ([1]; Non-stimulated PM) | extra-cellular L-Arg levels (mean of three experiments) ([1]; PM stimulated with IL-4 + IL-13) | rapid decrease in the extra-cellular levels of L-Arg ([1]; PM stimulated with IL-4+IL-13) | tumor growth (tumor volume) (3LL lung carcinoma; 20 or 40 mgs/kg subcutaneously, contralateral flank) | tumor growth, comparison of doses (3LL lung carcinoma; 40 mgs/kg, the highest dose tested) | ASE I expression in PM stimulated with cytokines (ASE I; 24 hours) | CAT-2B mRNA expression in stimulated PM (CAT-2B) | CD3ζ in stimulated T-cells co-cultured with cytokine-stimulated PM (T lymphocytes; transwells) | expression of CD3ζ and CD3ε in Jurkat cells co-cultured with cytokine-stimulated PM (Jurkat cells; rIL-4 50 U/ml, rIL-13 50 ng/ml, rIFN-γ 100 U/ml) | change of extra-cellular L-Arg by stimulated PM ([1]; similar to unstimulated PM) |
| --- | --- | --- | --- | --- | --- | --- | --- | --- | --- | --- | --- | --- | --- | --- |
| N=C(NO)NCC[C@H](N)C(=O)O [Nor-NOHA, N(omega)-hydroxy-nor-l-arginine] | did not prevent ASE I up regulation | prevented the loss of CD3ζ | blocked intracellular ASE activity | prevented the decrease of CD3ζ | 109.8 µM | 73.8 µM | partially blocked the rapid decrease | significant arrest of tumor growth | most effective |  |  |  |  |  |
| IFN-γ: murine rIFN-γ (100 U/ml), Th1 cytokine used to stimulate PM (protein, UniProt P01580 23-155, looked up) Interferon gamma: HGTVIESLESLNNYFNSSGIDVEEKSLFLDIWRNWQKDGDMKILQSQIISFYLRLFEVLKDNQAISNNISVIESHLITTFFSNSKAKKDAFMSIAKFEVNNPQVQRQAFNELIRVVHQLLPESSLRKRKRSRC |  |  |  |  |  |  |  |  |  | decrease ASE I expression | no increase in CAT-2B mRNA | normal cycle of internalization and re-expression of CD3ζ within 48 hours | did not alter CD3ζ or CD3ε expression | moderate decrease in L-Arg |
